Consider 1 compound from patent US20080096967A1, “Formulations for Injection of Catecholic Butanes, Including Ndga Compounds, Into Animals” (priority 2005, published 2008).

The test system of series [1] is Beagle dogs. Put plainly: Intravenous infusion toxicity study (maximum tolerable dose, escalating doses) in Beagle dogs. It is filed as in vivo. The procedure: The purpose of this study was to determine the maximum tolerable dose of tetra-O-methyl NDGA (M4N) when administered by intravenous infusion to male and female Beagle dogs, supplied by Convince Research Products (Cumberland, Va., U.S.A). Two Beagle dogs, one male and one female, about 6 to 9 months old at first dose, were administered the cyclodextrin vehicle containing 20% (w/v) HP-β-CD and 50% PEG 300, on Study Day (“SD”) 1, followed by escalating levels of M4N prepared in the cyclodextrin vehicle (i.e., the test articles). The preformed cyclodextrin vehicle and test articles were stored at room temperature. Sterile water, used as diluent, was obtained from Baxter Health Care Corp. (Deerfield, Mich., U.S.A) or Abbott Laboratories (North Chicago, Ill., U.S.A.) and stored at room temperature.
The test article, cyclodextrin vehicle and diluent were considered 100% pure for formulation purposes. Dose formulations were prepared on each day of dosing by adding the appropriate amount of test article or cyclodextrin vehicle into a glass container using a sterile syringe. For each dose, an equal amount of sterile water was added to the M4N formulation or cyclodextrin vehicle to form a 50:50 (v/v) dilution. No dilution was required for the 200 mg/kg dose. All formulations were mixed by gentle inversion to ensure that a proper solution was formed. Formulations were loaded into medication cassettes and stored at room temperature until needed.
M4N was administered at 25 mg/kg on SD 3, 50 mg/kg on SD 5, and 100 mg/kg on SD 8. Only the female received the full 100 mg/kg dose; due to mechanical malfunctions caused by precipitation in the infusion line, the male dog received approximately 72 mg/kg (i.e., 72%) of the intended dose. Two additional Beagle dogs were administered a 200 mg/kg dose; however, mechanical difficulties ensued and the male dog received approximately 180 mg/kg (90%) of the intended dose, whereas the amount the female received could not be determined.
Using aseptic surgical techniques, the animals were catheterized with an in-dwelling catheter inserted into the jugular vein, and were treated prophylactically with an analgesic and antibiotic on the day of surgery and with antibiotics and/or analgesics for 8 days following surgery.
Following completion of each intravenous infusion, 1 mL of sterile saline was administered as a slow bolus injection to flush the test material from the infusion line into the animal, followed by an injection of heparin-saline solution to fill the infusion line to maintain patency. The animals were observed. Cageside observation included observation for mortality, morbundity, general health, and signs of toxicity. […]

The nature of series [2]: 7-Day intravenous infusion study in Beagle dogs: toxicokinetic serum analysis. It is filed as in vivo. As for the experimental part: This study was conducted to evaluate the toxicokinetic profile of M4N formulated in 30% HP-β-CD and 25% PEG 300 when administered as a single intravenous infusion dose for seven consecutive days in beagle dogs. This study constitutes the first study of this particular formulation of M4N in dogs and was executed to evaluate the toxicity and compare tolerability of a diluted formulation (10 mg/mL versus 5 mg/mL).
A total of twelve beagle dogs (8 male/4 female) were dosed with M4N via a 54-minute (Group 2) or 108-minute (Groups 1, 3 and 4) intravenous infusion. All animals received seven doses, one per day over seven consecutive days.
The following parameters were evaluated: clinical observations and body weights. Test article analysis was performed on Study Days 1 and 7, blood samples (targeting a volume of 2.0 mL) were collected from each animal from an appropriate vessel at the following time points: […]

Series [3] is described as follows: Compatibility of IV tubing for delivery of M4N (visual inspection and HPLC). Particulars: PTFE and fluorelastomer, polypropylene, FEP, polyethylene, platinum cured silicone (small size). The procedure: In this experiment, various types of tubing were tested for compatibility and for optimizing intravenous delivery of M4N. The tests on compatibility were based on visual inspection and HPLC (high pressure liquid chromatography) analysis.
The visual inspection was conducted as follows: About 5 mL of a formulation to be tested (“formulated material”) were passed through a tubing of about 20 cm in length. The formulated material was kept inside the tube for about 24 hr at room temperature (25° C.). The formulated material was then circulated several times (about 5 times, for example) through the tubing and was collected in a beaker or a collection tube. The formulated material was carefully inspected for precipitates or particulates present, including by holding the beaker or collection tube against a white background followed by a dark background.
The compatibility test using HPLC analysis varied in the methodology depending on the tubing being tested, the length of time and the purpose of the tubing. This test measured the amount of M4N in solution before and after circulation through different tubing.

Regarding `COc1ccc(C[C@@H](C)[C@@H](C)Cc2ccc(OC)c(OC)c2)cc1OC` [Formulation M4N, meso-1,4-bis(3,4-dimethoxyphenyl)-2,3-dimethylbutane], in series [1] (Male dog 10567, SD13), the “Individual Body Weights” value worked out at 10.2 kg. For the same compound, the “gross pathology and microscopic changes” value in series [1] (dog, in vivo) is on record as “no test-article related gross pathology findings or microscopic changes”. The “doses at which no treatment-related adverse effects were observed” value in series [1] (dog, in vivo, iv) is recorded as “up to 200 mg/kg”. Moreover, in series [1] (escalating IV infusion doses 25 to 200 mg/kg in 20% HP-β-CD/50% PEG 300 vehicle), the mortality entry is “no effect”. In addition, the “peak test article concentration in serum” value turned out to be 33420 ng/mL in series [2] (Group 2, 45 mg/kg (10 mg/mL), 54-minute IV infusion); 46704 ng/mL in series [2] (Group 3, 90 mg/kg (10 mg/mL), 108-minute IV infusion); 18759 ng/mL in series [2] (Group 4, 45 mg/kg (5 mg/mL), 108-minute IV infusion). Moreover, the “time of maximum concentration” value in series [2] (Group 2, end of infusion) amounted to 0.9 h; in series [2] (Groups 3 and 4, end of infusion), 1.8 h. For the same compound, the “compatibility of tubing for delivery of M4N (threshold about 90% of M4N remaining in solution)” value in series [3] is “compatible”.
